Experimental data as given in patent publication EP2710378B1, “METHOD TO PROGNOSE VIRAL INFECTION BY MEASURING T CELL RESPONSE OR AUTO-ANTIBODIES TO APOPTOTIC EPITOPES” (Università degli Studi di Roma "La Sapienza", priority 2011, dated 2012).

Test system: CD8+pentamer+ TEM cells
Assay: Cross-presentation of apoptotic cells
Type: cell-based, patients with acute HCV infection
Conditions: DCs pulsed with apoptotic T cells previously treated with the inhibitor; five independent patients
Experimental: […]. Then, cells were induced to apoptosis by incubation with 500 ng/ml anti-Fas (anti-CD95 mAb [clone CH11], Upstate Biotechnology) for at least 6 h. Apoptotic cells were determined by staining with Annexin- V (ApoAlert Apoptosis Kit, Clontech Laboratories Inc), PI (Sigma-Aldrich) and flow-cytometry analysis. PBMCs were double-stained with pentamers and mAb to CD8 and cultured with iDCs that had been pulsed or not with apoptotic cloned T cells. After 6-8 h, cells were tested for their capacity to produce IL-17 and IFN-γ by intracellular cytokine staining (ICS) as described above. Cells were washed, acquired with a FACSCanto flow cytometer and analyzed with FACSDiva analysis software (Becton Dickinson) or FlowJo software (Treestar).
It is for interest the finding that fresh apoptotic epitope-specific CD8^+pentamer^+ TEM cells promptly produced IFN-γ or IL-17 ex vivo within a few hours of contact with DCs that had been pulsed with apoptotic T cells (i.e., through the cross-presentation mechanism) (Figure 25A,B). […] This phenomenon was confirmed in five independent patients (Figure 25B). The frequencies of apoptotic epitope-specific CD8^+ T cells (but not those of viral epitope-specific CD8^+ T cells [data not shown]) correlated with the number of circulating apoptotic T cells (Figure 25C). […]

SMILES: COC(=O)CC[C@H](NC(=O)[C@H](CC(=O)OC)NC(=O)OCc1ccccc1)C(=O)N[C@H](C(=O)N[C@@H](CC(=O)OC)C(=O)CF)C(C)C [C3I, Z-DEVD-FMK]
- IFN-γ or IL-17 production: marked decrease
